A word on the IC50: it is the concentration needed to halve the response being measured. A higher IC50 goes with weaker potency.

This assay concerns the target T1, human dihydroorotate dehydrogenase (hDHODH) (Homo sapiens, UniProt Q02127).
T1 construct: gene DHODH
The assay can be described thus: biochemical.

T1 sequence (Q02127 whole entry): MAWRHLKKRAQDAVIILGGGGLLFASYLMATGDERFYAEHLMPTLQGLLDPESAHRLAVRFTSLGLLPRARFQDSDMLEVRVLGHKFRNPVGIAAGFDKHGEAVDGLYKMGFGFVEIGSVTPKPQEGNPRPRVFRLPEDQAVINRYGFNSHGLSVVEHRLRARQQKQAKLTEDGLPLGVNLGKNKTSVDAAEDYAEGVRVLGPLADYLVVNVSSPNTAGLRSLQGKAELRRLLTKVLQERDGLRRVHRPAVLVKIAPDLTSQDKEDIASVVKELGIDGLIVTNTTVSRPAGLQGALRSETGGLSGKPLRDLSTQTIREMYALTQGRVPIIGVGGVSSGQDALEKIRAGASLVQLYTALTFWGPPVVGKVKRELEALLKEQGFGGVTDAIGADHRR

Compound `COc1cc([C@H]2Oc3c(O)cc([C@H]4Oc5cc(O)cc(O)c5C(=O)[C@@H]4O)cc3[C@@H]2CO)ccc1O` [Silychristin B] came in with a concentration for half-maximal inhibition (IC50) of 166 nM. With `COc1cc(C2Oc3cc([C@H]4Oc5cc(O)cc(O)c5C(=O)[C@@H]4O)ccc3OC2CO)ccc1O` (some centres unmarked) [Silibinin] the figure was 121 nM.
